The text below walks through data of publication doi:10.1101/2024.08.19.608619, “Discovery of potent SARS-CoV-2 nsp3 macrodomain inhibitors uncovers lack of translation to cellular antiviral response” (bioRxiv, 2024).

The target in assay [1] is T1, SARS-CoV-2 nsp3-mac1 (Severe acute respiratory syndrome coronavirus 2, UniProt P0DTD1). As to the kind of experiment: biochemical. The arrangement: SARS-CoV-2 nsp3 macrodomain TR-FRET single point, per cent inhibition, n=2.
Assay [2] addresses T1, SARS-CoV-2 nsp3-mac1. Briefly: biochemical. Conditions: SARS-CoV-2 nsp3 macrodomain TR-FRET single point, concentration 50.0 uM. The assay is classed as biochemical.

Structures are written as SMILES. Where two headings read alike, the source gives them in different places.

With `Cc1cccc(Cl)c1-n1sc(=O)n(CC2CC2)c1=O` [ASAP-0000110], the inhibition at 50 µM in assay [1] (read-out: perc_inhibition_mean, batch_name=ASAP-0000110-001) came out at 51.9%. Moreover, in assay [2], the perc_inhibition_mean amounted to 51.933%.

For `COc1cc(OC)cc(C(=O)N(CCC(=O)N2CCNCC2)Cc2cccc(Cl)c2)c1` [ASAP-0000111], in assay [1] (read-out: perc_inhibition_mean, batch_name=ASAP-0000111-001), the inhibition at 50 µM is -4.53%. Besides, in assay [2], the perc_inhibition_mean is given as -4.529%.

As to `CN(c1ncnc2[nH]ccc12)[C@H]1CCN(S(C)(=O)=O)C1` [ASAP-0000112], in assay [1] (read-out: perc_inhibition_mean, batch_name=ASAP-0000112-001), the inhibition at 50 µM was -0.371%. Further, the perc_inhibition_mean in assay [2] is -0.371%.

As to `Cc1nn(C)c(NCc2nc(CO)cs2)c1C#N` [ASAP-0000113], the inhibition at 50 µM in assay [1] (read-out: perc_inhibition_mean, batch_name=ASAP-0000113-001) worked out at 2.1%. Besides, the perc_inhibition_mean in assay [2] worked out at 2.1%.

`O=C(CCCc1cccnc1)Nc1cnc2[nH]ncc2c1` [ASAP-0000114]: the inhibition at 50 µM in assay [1] (read-out: perc_inhibition_mean, batch_name=ASAP-0000114-001) was -3.65%. Further, the perc_inhibition_mean in assay [2] is reported as -3.651%.

Take `CNC(=O)c1ccnc(NC(=O)c2ccc(N3CCOCC3)cc2)c1` [ASAP-0000115]: the inhibition at 50 µM in assay [1] (read-out: perc_inhibition_mean, batch_name=ASAP-0000115-001) was -12.3%. In addition, the perc_inhibition_mean in assay [2] is -12.336%.

`Cc1noc(CCCNC(=O)c2ncnc3[nH]ccc23)n1` [ASAP-0000116]: the inhibition at 50 µM in assay [1] (read-out: perc_inhibition_mean, batch_name=ASAP-0000116-001) is -5.13%. In addition, the perc_inhibition_mean in assay [2] was -5.133%.

`COCc1cc(CNc2nc3[nH]cnc3c(=O)[nH]2)on1` [ASAP-0000117]: the inhibition at 50 µM in assay [1] (read-out: perc_inhibition_mean, batch_name=ASAP-0000117-001) was found to be 2.98%. Further, the perc_inhibition_mean in assay [2] amounted to 2.984%.

As for `Cc1cc(NCc2cnc3c(c2)NC(=O)CO3)cnc1C` [ASAP-0000118], the inhibition at 50 µM in assay [1] (read-out: perc_inhibition_mean, batch_name=ASAP-0000118-001) came to 4.53%. Also, the perc_inhibition_mean in assay [2] is recorded as 4.531%.

For `Cn1ncc2ncnc(NCc3ncccc3O)c21` [ASAP-0000119], the inhibition at 50 µM in assay [1] (read-out: perc_inhibition_mean, batch_name=ASAP-0000119-001) was -2.55%. The perc_inhibition_mean in assay [2] is -2.547%.

Take `O=C(OCc1ncccc1Cl)c1ncnc2[nH]ccc12` [ASAP-0000120]: in assay [1] (read-out: perc_inhibition_mean, batch_name=ASAP-0000120-001), the inhibition at 50 µM came out at 5.06%. Further, the perc_inhibition_mean in assay [2] was 5.063%.

On to `CC(C)n1ncnc1CNc1cc2c(=O)nc[nH]c2cn1` [ASAP-0000121], for which the inhibition at 50 µM in assay [1] (read-out: perc_inhibition_mean, batch_name=ASAP-0000121-001) was -1.49%. For the same compound, the perc_inhibition_mean in assay [2] was -1.486%.

With `Cc1cncc(NCc2csc(-c3ccccn3)n2)c1` [ASAP-0000122], the inhibition at 50 µM in assay [1] (read-out: perc_inhibition_mean, batch_name=ASAP-0000122-001) is -5.02%. Further, in assay [2], the perc_inhibition_mean is recorded as -5.024%.

On to `c1ccc(-c2nc(CNc3cccnc3)cs2)nc1` [ASAP-0000123], for which the inhibition at 50 µM in assay [1] (read-out: perc_inhibition_mean, batch_name=ASAP-0000123-001) was -9.87%. In addition, in assay [2], the perc_inhibition_mean is reported as -9.865%.

With `Cc1cc(NCc2ncccc2O)ncn1` [ASAP-0000124], the inhibition at 50 µM in assay [1] (read-out: perc_inhibition_mean, batch_name=ASAP-0000124-001) is -3.33%. The perc_inhibition_mean in assay [2] is -3.335%.

Take `Cn1nc(NC(=O)c2cc3nccn3c(=O)[nH]2)c2nccnc21` [ASAP-0000125]: the inhibition at 50 µM in assay [1] (read-out: perc_inhibition_mean, batch_name=ASAP-0000125-001) was -1.91%. For the same compound, the perc_inhibition_mean in assay [2] is reported as -1.913%.

For the compound `Cn1c(C(=O)NCCNC(=O)c2ccco2)cc2c(=O)n3ccccc3nc21` [ASAP-0000126], the inhibition at 50 µM in assay [1] (read-out: perc_inhibition_mean, batch_name=ASAP-0000126-001) is -4.47%. In assay [2], the perc_inhibition_mean is -4.472%.

Turning to `CCn1cc(CNc2nc3[nH]cnc3c(=O)[nH]2)nn1` [ASAP-0000127], in assay [1] (read-out: perc_inhibition_mean, batch_name=ASAP-0000127-001), the inhibition at 50 µM was -0.991%. Further, the perc_inhibition_mean in assay [2] was -0.991%.

Turning to `O=C(NCc1nc(-c2ccco2)n[nH]1)c1cc(=O)n2ncnc2[nH]1` [ASAP-0000128], in assay [1] (read-out: perc_inhibition_mean, batch_name=ASAP-0000128-001), the inhibition at 50 µM is -2.6%. Moreover, the perc_inhibition_mean in assay [2] is reported as -2.599%.

Regarding `COCc1cc(CC(=O)Nc2ncnc3[nH]cnc23)no1` [ASAP-0000129], the inhibition at 50 µM in assay [1] (read-out: perc_inhibition_mean, batch_name=ASAP-0000129-001) came to 2.97%. In addition, the perc_inhibition_mean in assay [2] amounted to 2.968%.

For `NS(=O)(=O)c1ccccc1CNc1ncnc2[nH]ccc12` [ASAP-0000130], in assay [1] (read-out: perc_inhibition_mean, batch_name=ASAP-0000130-001), the inhibition at 50 µM was 3.66%. For the same compound, in assay [2], the perc_inhibition_mean is on record as 3.656%.

As for `O=C(Nc1ccc(C(=O)NCc2c(C(=O)O)[nH]c3ccccc23)cc1)NC1CC1` [ASAP-0000131], in assay [1] (read-out: perc_inhibition_mean, batch_name=ASAP-0000131-001), the inhibition at 50 µM was 86.2%. For the same compound, the perc_inhibition_mean in assay [2] is given as 86.217%.

For the compound `O=C(Nc1cnc2[nH]ncc2c1)C1(c2ccccc2)CC1` [ASAP-0000133], the inhibition at 50 µM in assay [1] (read-out: perc_inhibition_mean, batch_name=ASAP-0000133-001) is 3.21%. For the same compound, in assay [2], the perc_inhibition_mean is 3.207%.
